Laboratory results as given in ChEMBL document CHEMBL1135977, “Comparison of 3D structures and AT(1) binding properties of pyrazolidine-3,5-diones and tetrahydropyridazine-3,6-diones with parent antihypertensive drug irbesartan” (J Med Chem, 2002).

Experiments:
[1] = Inhibition of AII(50 nM) induced intracellular [Ca2+] increase in PLC-PRF cells; format: functional, cell-based; conditions: Homo sapiens
[2] = target: T1, Type-1 angiotensin II receptor (Homo sapiens, UniProt P30556); test: In vitro binding affinity towards Angiotensin II receptor, type 1 of human hepatoma cell line PLC-PRF-5
T1 sequence (P30556 whole entry): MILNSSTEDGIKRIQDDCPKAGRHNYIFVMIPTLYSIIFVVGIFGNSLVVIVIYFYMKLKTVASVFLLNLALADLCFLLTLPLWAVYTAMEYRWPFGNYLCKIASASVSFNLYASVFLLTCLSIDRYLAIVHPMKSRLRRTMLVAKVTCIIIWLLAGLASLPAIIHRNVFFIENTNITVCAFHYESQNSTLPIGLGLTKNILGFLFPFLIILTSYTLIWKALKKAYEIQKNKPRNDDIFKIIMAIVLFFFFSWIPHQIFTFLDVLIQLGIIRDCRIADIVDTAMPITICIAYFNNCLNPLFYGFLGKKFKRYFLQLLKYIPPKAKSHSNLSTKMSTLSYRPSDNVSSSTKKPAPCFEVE

IC50 [1] [nM]	Ki [2] [nM]	SMILES
102	80	CCCCN1C(=O)C2(CCCC2)CC(=O)N1Cc1ccc(-c2ccccc2-c2nnn[nH]2)cc1
28	–	CCCCN1C(=O)C2(CCCC2)C(=O)N1Cc1ccc(-c2ccccc2-c2nn[nH]n2)cc1
4	–	CCCCC1=NC2(CCCC2)C(=O)N1Cc1ccc(-c2ccccc2-c2nnn[nH]2)cc1 [IRBESARTAN]
9	14	CCCCN1C(=O)CC2(CCCC2)C(=O)N1Cc1ccc(-c2ccccc2-c2nn[nH]n2)cc1
